# Test results published in patent publication US20200281965A1, “[…] NITRIC OXIDE” (Beyond Air, Inc., priority 2017, published 2020).
# What was measured:
# [1] = tested on: human influenza (influenza A/victoria H3N2) and highly pathogenic avian influenza (H7N2); type: cell-based, influenza virus
# [2] = tested on: human respiratory syncytial virus (rgRSV30); type: cell-based
# [3] = safety monitoring of human subjects undergoing intermittent gNO inhalation; type: in vivo
# From the text: In some embodiments, the methods disclosed herein are effected while monitoring various parameters relevant for maintaining the desired dosage and regimen, relevant to the safety of the procedure and relevant for efficacy of the treatment. Exemplary such parameters are those obtainable on-site in real-time, such as methemoglobin level, end-tidal CO2 level, and oxygenation, and parameters which are obtainable off-site in the laboratory, such as blood nitrite level, urine nitrite level, and inflammatory markers' level. […] Embodiments of the present invention therefore relate to methods of administering gaseous nitric oxide to human subjects in need thereof, while these parameters remain substantially unchanged.
# As methemoglobin levels can be measured using noninvasive measures, the parameter of percent saturation at the periphery of methemoglobin (SpMet) is used to monitor the stability, safety and effectiveness of the method presented herein.
# [4] = human subjects undergoing the disclosed regimen
structure (smiles),measurement,setting,value
"[N]=O [gNO, nitric oxide]",infectivity of influenza,[1],reduced their infectivity
same,infectivity of RSV,[2],reduced their infectivity
same,change in inflammatory markers,[3]; [4],no substantial change
same,change in methemoglobin level,[3]; [4],no substantial change
same,change in serum nitrite level,[3]; [4],no substantial change
same,SpMet level (percent saturation at the periphery of methemoglobin),"[3]; human subjects undergoing the method, during and following administration",≤ 1%
